These results are taken from patent US10633386B2, “BET protein degraders” (THE REGENTS OF THE UNIVERSITY OF MICHIGAN, priority 2016, dated 2020).

Experiment [1] relates to TNBC cell lines. As to the kind of experiment: Combination growth inhibition with BCL-2/BCL-XL inhibitors (Bliss independence model). The format is cell-based. The conditions noted are these: 6 of the 7 TNBC cell lines tested (data not shown). The method, then: MCL1 and BCL-XL are important but independent determinants of cell survival in TNBC (Goodwin et al., Cell Death Differ 22:2098-106 (2015); Xiao et al., Mol. Cancer Ther. 14:1837-47 (2015); Petrocca et al., Cancer Cell 24:182-96 (2013)). A panel of TNBC cell lines were treated with Cpd. No. 4 in combination with BCL-2 and/or BCL-XL inhibitors, and the excess growth inhibition was computed over the Bliss independence model for each combination pairs (Berenbaum, Adv. Cancer Res., 35:269-335 (1981)). ABT-263 (Tse et al., Cancer Res. 68:3421-8 (2008)) and BM-1197 (Bai et al., PLoS One 2014; 9(6):e99404 doi 10.1371/journal.pone.0099404) were selected as dual BCL-2/BCL-XL inhibitors, […] as a selective BCL-XL inhibitor (Tao et al., ASC Med. Chem. Lett. 5:1088-93 (2014)) and ABT-199 as a selective BCL-2 inhibitor (Souers et al., Nat. Med. 19:202-8 (2013)).

Experiment [2] relates to TNBC cell lines. As to the kind of experiment: Combination apoptosis induction (immunoblotting and/or Annexin-PI staining). The format is cell-based. The settings on record: for effect on Cpd. No. 4-induced apoptosis: MDA-MB-468, 250 nM with Cpd. No. 4 50 nM (FIG. 14). The method, then: Immunoblotting and/or Annexin-PI staining confirmed that BM-1197 (250 nM), ABT-263 (250 nM), and A-1155463 (250 nM) potentiated Cpd. No. 4-induced apoptosis (50 nM) in MDA-MB-468 (FIG. 14) and other TNBC cell lines (data not shown). Synergistic induction of apoptosis by Cpd. […] No. 4-induced apoptosis in these cell lines. […] A with either BM-1197 (FIGS. 15 and 16) or ABT-263 (data not shown). […] No. 4 and BM-1197 was also detected in additional TNBC cell lines responsive to Cpd. No. 4-induced apoptosis (BT-20 and MDA-MB-157) (data not shown), further supporting that BCL-XL inhibitors potentiate Cpd. No. 4-induced apoptosis in TNBC.

A further experiment deals with MDA-MB-231. As to the kind of experiment: Cell growth inhibition (CellTiter-Glo), MDA-MB-231. The conditions noted are these: Homo sapiens, MDA-MB-231, 96 h, MDA-MB-231 cells, 4 days. The format is cell-based, human. The protocol:
(§1) Cell growth inhibitory activity of representative BET bromodomain degraders was determined using CellTiter-Glo® Luminescent Cell Viability Assay. Cells were seeded in 384-well white opaque cell culture plates at a density of 2,000 cells/well with serially diluted compounds and incubated at 37° C. in an atmosphere of 95% air and 5% CO2 for 4 days. Cell viability was determined using the CellTiter-Glo® Luminescent Cell Viability Assay Kit (Promega, Madison, Wis.) according to the manufacture's instruction. Briefly, a volume of CellTiter-Glo® Reagent equal to the volume of cell culture medium was added to each well, and then the plates were incubated at room temperature for 10-20 minutes. The luminescent signal was measured using a Tecan Infinite M1000 multimode microplate reader (Tecan, Morrisville, N.C.). The half maximal inhibitory concentration (IC50) was calculated using the GraphPad Prism 5 software (GraphPad Software, La Jolla, Calif.).
For orientation: ATP-based viability assays read luminescence as a measure of living cells.

In a further experiment the test system is MOLM-13. As to the kind of experiment: Cell growth inhibition (CellTiter-Glo), MOLM-13. The format is cell-based. The settings on record: Homo sapiens, MOLM-13, 96 h, MOLM-13 cells, 4 days. The protocol:
as §1

Another experiment has as its system MDA-MB-231 xenograft. As to the kind of experiment: In vivo antitumor activity in MDA-MB-231 xenograft model (Example 25). Further details: species or system SCID mice. The method, then:
(§2) For the in vivo efficacy experiments of this example, when tumors reached 80-200 mm^3, SCID mice were randomized into groups. Cpd. A, Cpd. No. 4, Cpd. No. 6, or vehicle control (10% PEG400: 3% Cremophor: 87% PBS, or 2% TPGS:98% PEG200) was given at the dose and duration indicated. Tumor sizes and animal weights were measured 2-3 times per week. Tumor volume (mm^3)=(length×width^2)/2. Tumor growth inhibition was calculated as TGI (%)=(Vc−Vt)/(Vc−Vo)*100, where Vc, Vt are the median of control and treated groups at the end of the study and Vo at the start. All the in vivo studies were performed under an animal protocol approved by the University Committee on Use and Care of Animals of the University of Michigan, in accordance with the recommendations in the Guide for the Care and Use of Laboratory Animals of the National Institutes of Health.
(§3) No. 4 was determined in xenograft tumor models of TNBC cell lines.

Another experiment concerns MDA-MB-468 xenograft. As to the kind of experiment: In vivo antitumor activity in MDA-MB-468 xenograft model. Further details: species or system SCID mice. The method, then: as §2, §3

In the case of `CN(C)CC#Cc1ccc(OCCCc2sc(N3CCc4cccc(C(=O)Nc5nc6ccccc6s5)c4C3)nc2C(=O)O)c(F)c1` [A-1155463], the “synergy with Cpd. No. 4 (excess growth inhibition over Bliss independence model)” value with TNBC cell lines [1] is listed as “Modest to strong synergy”. Besides, the “effect on Cpd. No. 4-induced apoptosis” value with TNBC cell lines [2] is “potentiated”.
Taken in the same sequence, the figures for `CC1(C)CCC(c2ccc(Cl)cc2)=C(CN2CCN(c3ccc(C(=O)NS(=O)(=O)c4ccc(N[C@H](CCN5CCOCC5)CSc5ccccc5)c(S(=O)(=O)C(F)(F)F)c4)cc3)CC2)C1` [ABT-263] were “Modest to strong synergy” and “potentiated”.
As for `Cc1c(S(C)(=O)=O)c(-c2cc(F)cc(N3CCN(c4ccc(NS(=O)(=O)c5ccc(N[C@H](CCN6CCC(O)CC6)CSc6ccccc6)c(S(=O)(=O)C(F)(F)F)c5)cc4)CC3)c2)c(-c2ccc(Cl)cc2)n1C(C)C` [BM-1197], in the experiment on TNBC cell lines [1], the “synergy with Cpd. No. 4 (excess growth inhibition over Bliss independence model)” value is recorded as “Modest to strong synergy”. In addition, the “apoptosis induction by the combination of Cpd. No. 4 and BM-1197” value with TNBC cell lines [2] (BT-20 and MDA-MB-157 (data not shown)) was “synergistic apoptosis induction”. For the same molecule, the “effect on apoptosis induction by Cpd. No. 4” value in the experiment on TNBC cell lines [2] (MDA-MB-213 cells (FIG. 15)) and in the experiment on TNBC cell lines [2] (MDA-MB-453 cells (FIG. 16)) was “enhances apoptosis induction by Cpd. No. 4” throughout. Besides, in the experiment on TNBC cell lines [2], the “effect on Cpd. No. 4-induced apoptosis” value is recorded as “potentiated”.
For the molecule `CCn1nc(C2CC2)cc1Nc1nc(C(=O)NCCCCCc2cccc3c2CN(C2CCC(=O)NC2=O)C3=O)nc2[nH]c3cc(-c4c(C)noc4C)c(OC)cc3c12` (centres unmarked) [Cpd. No. 6], the IC50 was 1 nM in the experiment with MDA-MB-231 and under 0.8 nM with MOLM-13. The tumor growth result with MDA-MB-231 xenograft (MDA-MB-231 xenograft model in mice (FIG. 10)) and in the experiment on MDA-MB-468 xenograft (MDA-MB-468 xenograft model in mice (FIG. 11)) was “reduce tumor growth” each time. Further, the “antitumor activity relative to Cpd. A at 50 mg/kg, daily oral dosing, 5 days a week for 3 weeks” value in the experiment on MDA-MB-231 xenograft (MDA-MB-231 xenograft model, 5 mg/kg, IV, 3 times per week for 3 weeks) is “comparable to or stronger than that of Cpd. A”; with MDA-MB-468 xenograft (MDA-MB-468 xenograft model, 5 mg/kg, IV, 3 times per week for 3 weeks) it was “comparable to or stronger than that of Cpd. A”. Moreover, the antitumor activity result in the experiment on MDA-MB-231 xenograft (MDA-MB-231 xenograft model, 5 mg/kg, IV, 3 times per week for 3 weeks (FIG. 10)) was “exerted antitumor activity”; in the experiment on MDA-MB-468 xenograft (MDA-MB-468 xenograft model, 5 mg/kg, IV, 3 times per week for 3 weeks (FIG. 11)), “exerted antitumor activity”.

A word on the IC50: it is the concentration that gives 50% inhibition.
